Data from US8173840B2, “Compounds with high therapeutic index” (Signature R&D Holdings, LLC, priority 2003, dated 2012).
Converted amounts (≈) assume the structure as drawn. “And” between values parts separate entries of the source, which are not always exact repeats. Equal entries are not always repeated. Where two headings read alike, the source gives them in different places. Blank lines part the entries; values can stand above or below the compound they belong to.

Assays:
[1] = system: male albino mice (Swiss strain); experiment: Acetylcholine induced abdominal constriction (writhe) method; type: in vivo, mouse; conditions: gavage
Description: Ibuprofen (racemic mixture) and ibuprofen (S)-(+) served as reference controls.
The study was conducted at two dose levels viz. 50 mg and 100 mg/kg body weight along with a vehicle control group. At each dose level 10 animals were used. All the doses were expressed as ibuprofen molar equivalents. The doses used as well as the molar equivalents are presented below.
The efficacy in terms of antagonizing effect on acetylcholine induced single writhe at two dose levels—50.0 and 100.0 mg/kg for the three formulations and reference controls are presented below.

[2] = system: Swiss Albino Mice; conditions: mouse, in vivo
[3] = system: Swiss Albino Mice; experiment: 28-day chronic toxicity study of ibuprofen esters; conditions: 28 days
[4] = Solubility of propofol and its amino acid esters in water; conditions: for solubility: water, solubility in water
[5] = system: albino mouse; experiment: Anesthetic effect in male albino mice, righting reflex as index; conditions: for efficacy in inducing anesthesia based on time required to regain the righting reflex (conclusion): albino mice; for dose response relation (statistical analysis): low, intermediate, high dose
[6] = system: albino mice (Swiss strain); experiment: 14 day repeated dose toxicity study, intravenous route, propofol esters; conditions: for feed intake / behavior, feed consumption, organ weights, histopathology of different organs / reduced body weight gain compared to vehicle control: 14 days; for behavior, feed consumption, organ weights, histopathology of different organs: vs reference group; for animals exhibiting clinical symptoms of toxicity / body weight gain: IV daily 14 days; for body weight gain: compared to vehicle control
[7] = system: albino rats; experiment: Blood clotting time in albino rats, one hour after dosing; type: in vivo, rat
Description: The data on the mean clotting time (MCT) of the animals of low, intermediate and high dose groups of different formulations, vehicle control and positive control groups estimated one hour after dosing were presented below (Table 19):
Aspirin served as positive control. The study was conducted at three dose levels with the new formulations and positive control along with a vehicle control group.
The doses for the main study were selected based on the dose range finding experiments with acetylsalicylic acid. All the doses were expressed as aspirin molar equivalents. The doses used are presented below.

[8] = system: albino rats (Wistar strain); conditions: rat, in vivo;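 also: one dose level only, compared with a vehicle control group, with doses stated as Aspirin molar equivalents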
[9] = Plasma aspirin and salicylic acid in human volunteers; type: in vivo
Source text: This is shown in FIG. 12 which depicts the concentration of salicyclic Acid in human plasma with respect to four volunteers who took Acetylsalicyclic Acid-L-Threonine Ester and two volunteers who took Aspirin.

[10] = system: rats; experiment: Clotting time in rats, different date, time intervals and doses (Table 24); type: in vivo, rat
Source text: The following additional data were obtained, when the same drugs were compared in rats on a different date with different time intervals and doses: […]

[11] = system: human volunteers; experiment: Blood clotting time studies in human volunteers; type: in vivo; conditions: for AVERAGE CLOTTING TIME: human volunteers, listed as ASA-T ESTER
Description: Several blood clotting time studies were performed on a limited number of human volunteers with Acetylsalicylic Acid-L-Threonine Ester. […] This plot was derived from the data in Table 29. The two Acetylsalicylic Acid-L-Threonine Ester blocks shown above correspond to two separate volunteers who took the test drug over a period of 5 days. The third volunteer took Bayer Aspirin for 5 days. As per FIG. 2, increase in clotting time occurred on the very first day of drug intake, and remained higher than Bayer ASA during the subsequent administrations.

[12] = system: Male albino rats; experiment: Blood clotting time in albino rats, 2 hours after dosing; type: in vivo, rat
Description: Aspirin served as positive control. Male albino rats were exposed to aspirin and to 3 new formulations of amino acid derivatives of aspirin derivatives at one dose level of 20 mg/kg body weight. […]. The doses were expressed as aspirin molar equivalents.
The efficacy in terms of time required for the blood clotting time at the dose level of 20 mg/kg body weight for different formulations of amino acid derivatives of aspirin and aspirin (positive control) are presented below:
The data on the mean clotting time (MCT) of the animals, estimated 2 hours (±10 minutes) after dosing, at the dose level of 20 mg/kg body weight for the formulations of aspirin derivatives, vehicle control and positive control are presented below

[13] = system: fasted male albino rats (Wistar strain); experiment: Gastric mucosa irritation of acetylsalicylic acid esters; type: in vivo, rat; conditions: two doses, 100 and 200 mg/kg
Description: Aspirin served as a reference control. […] All the doses were expressed as aspirin molar equivalents. The doses used as well as the molar equivalents are presented below. The rats were fasted for a period of 18 to 22 hours before dosing. The test item was administered as a single dose by gavage. Three hours after drug administration, the animals were killed humanely by CO2 gas inhalation. The stomach was dissected out and observed for • the quantity of mucous exudate, • degree of hyperemia and thickening of stomach wall, • hemorrhagic spots (focal or diffuse), nature of hemorrhages (petechial or ecchymotic) along with the size and • perforations

[14] = cited from earlier work; for solubility in deionized water: deionized water at 25° C.
[15] = system: Patient; experiment: Human clinical trial of S(−)Ketorolac-L-Threonine ester (analgesic activity); type: in vivo; conditions: for analgesic activity and side effects (words): 13 mg twice daily, oral capsules, Hydrochloride
Description: S(−)Ketorolac-L-Threonine ester capsules were filled using dextrose as the filler. […] For example, 13 mg of S(−)Ketorolac-L-Threonine ester was roughly equivalent to 13 mg of racemic Ketorolac tromethamine in tablet and/or capsule form.
A patient suffering from severe ankolysing spodolytis, arthritis and other inflammatory joint problems was under treatment with Indomethacin, 25 mg twice daily dose. In order the evaluate the analgesic activity of S(−) Ketorolac-L-Threonine ester, the patient was withdrawn from Indomethacin. After 24 hours, the pain returned and they were administered with 13 mg of S(−) Ketorolac L-Threonine ester, once in the morning and once in the evening. This was repeated for 5 days.
About 3 months later, the same above volunteer repeated the experiment. This time, after they went off the indomethacin, only one dose of 13 mg of S(−) Ketorolac-L-Threonine ester was administered. […] This treatment was continued for another 3 days of two capsules of 13 mg each. On the morning of the 6th day, they were switched back to Indomethacin.

[16] = 50.0 mg/kg in terms of Ibuprofen
[17] = 100.0 mg/kg in terms of Ibuprofen

Compound: CC(C)Cc1ccc(C(C)C(=O)O)cc1 (racemic) [Ibuprofen (racemic mixture), reference compound]
Number of animals showing absence of single writhe (number of animals per dose = 10), One hour after dosing [1, 16]: 4
Number of animals showing absence of single writhe (number of animals per dose = 10), Three hours after dosing [1, 16]: 2
Number of animals showing absence of single writhe (number of animals per dose = 10), One hour after dosing [1, 17]: 6
Number of animals showing absence of single writhe (number of animals per dose = 10), Three hours after dosing [1, 17]: 6
animals that died ([2]; both): 40%
Mortality ([2]; female): 3/5
Mortality ([2]; male): 1/5
No of animals survived ([3]; 10 animals per group): 6
Average Change In body Weight ([3]; surviving animals): 2.97 gms
Percentage Change of body weight ([3]; surviving animals): 12.54%

Compound: CC(C)c1cccc(C(C)C)c1OC(=O)C(N)CCCCN.Cl.Cl (stereo in doubt) [Propofol Lysine Ester, 2(S),6-Diamino-hexanoic acid 2,6-diisopropyl-phenyl ester, dihydrochloride]
solubility in water [4]: > 250 mg/mL
anesthetic effect, relative efficacy ([5]; Intermediate Dose): did not show any anesthetic effect
anesthetic effect, relative efficacy ([5]; Low Dose): did not show any anesthetic effect
efficacy in inducing anesthesia based on time required to regain the righting reflex (conclusion) [5]: relatively better efficacy
dose response relation (statistical analysis) [5]: significant improvement at 5% significance level in the relative efficacy for the high dose when compared to low dose group

Compound: CC(C)c1cccc(C(C)C)c1OC(=O)C1CCCN1.Cl (stereo in doubt) [Propofol Proline Ester, Pyrrolidine-2(S)-carboxylic acid 2,6-diisopropyl-phenyl ester, hydrochloride]
solubility [4]: > 100 mg/mL
feed intake [6]: normal and comparable to that of vehicle control group
behavior, feed consumption, organ weights, histopathology of different organs [6]: normal and comparable to that of the animals of the reference group
animals exhibiting clinical symptoms of toxicity [6]: None of the animals
body weight gain [6]: normal and comparable to that of vehicle control group of animals
MCV vs Propofol injection (RC) [p<0.05] ([6]; female animals): significantly decreased
level of urea vs Propofol injection (RC) [p<0.05] ([6]; female animals): significantly decreased
granulocytes vs Propofol injection (RC) [p<0.05] ([6]; male animals): significantly decreased
level of sodium vs Propofol injection (RC) [p<0.05] ([6]; male animals): significantly increased
lymphocytes counts vs Propofol injection (RC) [p<0.05] ([6]; male animals): significantly increased
anesthetic effect, relative efficacy ([5]; Intermediate Dose): more effective
dose response relation (statistical analysis) [5]: No significant dose—response effects were evident

Adrenals (Abs) organ weight, Significance[P < 0.05] [8]: Decrease (Male)
Alkaline Phosphatase, Significance [P < 0.05] [8]: Increase (Female)
All Blood Parameters, Significance [P < 0.05] [8]: None
All Clinical Chemistry, Significance [P < 0.05] [8]: None(but two
Blood Glucose, Significance [P < 0.05] [8]: Decrease (Female)
Cholesterol, Significance [P < 0.05] [8]: Increase (Male)
Creatinine, Significance [P < 0.05] [8]: Decrease (Male)
Kidney (Abs) organ weight, Significance[P < 0.05] [8]: Decrease (Male)
Kidney (Rel) organ weight, Significance[P < 0.05] [8]: Increase (Male)
Platelet Count, Significance [P < 0.05] [8]: Increase (Male)
Spleen (Abs) organ weight, Significance[P < 0.05] [8]: Decrease (Male)
Total Protein, Significance [P < 0.05] [8]: Increase (Female)
Aspirin in blood / plasma ([9]; 325 mg dose, oral): No Aspirin was found in blood
Compound: CC(=O)Oc1ccccc1C(=O)O[C@H](C)[C@H](N)C(=O)O [2-O-Acetylsalicylic Acid (2S,3R)-(−)-threonine Ester]
Mean Clotting Time (±S.D.), Low Dose ([7]; 1.0 mg/kg as aspirin, one hour after dosing): 5.2 ± 1.14 min
Mean Clotting Time (±S.D.), Intermediate Dose ([7]; 4.0 mg/kg as aspirin, one hour after dosing): 5.6 ± 0.84 min
Mean Clotting Time (±S.D.), High Dose ([7]; 10.0 mg/kg as aspirin, one hour after dosing): 7.4 ± 0.97 min
effectiveness with respect to clotting time ([7]; one hour after administration): as effective as acetylsalicylic acid
statistical analysis of mean clotting time vs vehicle control ([7]; one hour after dosing): significant improvement at 5% significance level in the efficacy for the high dose
Food intake [8]: normal and comparable to the animals of vehicle control group
histological sections of organs [8]: did not show any histopathological changes
Salicylic Acid in human plasma (profile, words) [9]: prolonged and sustained formation and disappearance of Salicylic acid
Clotting Time ([10]; 10 mg/kg 1 hr): 7.4 min
Clotting Time ([10]; 10 mg/kg 24 hr): 3.6 min
Clotting Time ([10]; 20 mg/kg 2 hr): 5.3 min
response in the rat blood clotting time ([10]; compared against the various amino acid esters): consistently a better response
AVERAGE CLOTTING TIME ([11]; 81 mg): 5.2 min and 5.1 min
AVERAGE CLOTTING TIME ([11]; 325 mg): 6.2 min and 6.0 min
effectiveness on clotting time ([11]; low dose of 80 mg, with baseline correction): as effective as 325 mg Bayer Aspirin
Mean Clotting Time (± S.D.) ([12]; 20 mg/kg as aspirin, 2 hours (±10 minutes) after dosing): 5.3 ± 1.06 min
relative efficacy on clotting time ([12]; 2 hours after dosing): relatively better efficacy than the other two formulations
mean blood clotting time with respect to positive control (statistics) ([12]; after two hours): no significant difference at 5% significance level
esters inducing evidence of irritation of gastric mucosa [13]: none

Compound: CC(C)c1cccc(C(C)C)c1OC(=O)CN.Cl [Propofol Glycine Ester, Amino-acetic acid 2,6-diisopropyl-phenyl ester, hydrochloride]
solubility [4]: > 100 mg/mL
feed intake [6]: normal and comparable to that of vehicle control group
behavior, feed consumption, organ weights, histopathology of different organs [6]: normal and comparable to that of the animals of the reference group
animals exhibiting clinical symptoms of toxicity [6]: None of the animals
body weight gain [6]: reduced in both the sexes
MCV vs Propofol injection (RC) [p<0.05] ([6]; female animals): significantly decreased
granulocytes counts vs Propofol injection (RC) [p<0.05] ([6]; female animals): significantly increased
reduced body weight gain compared to vehicle control ([6]; females): 26.94%
reduced body weight gain compared to vehicle control ([6]; males): 25.87%
anesthetic effect, relative efficacy ([5]; High Dose): more effective
anesthetic effect, relative efficacy ([5]; Low Dose): more effective
efficacy in inducing anesthesia based on time required to regain the righting reflex (conclusion) [5]: relatively better efficacy
dose response relation (statistical analysis) [5]: not statistically evident

Compound: O=C(O)[C@@H]1C[C@@H](O)CN1 [hydroxyproline]
solubility in deionized water [14]: ~369 mg/mL (≈ 2810 mM)

Compound: NCCCC[C@H](N)C(=O)O [lysine]
solubility [14]: 700 mg/mL (≈ 4790 mM)
solubility in deionized water [14]: approximately 700 g/L

Compound: S(−)-Ketorolac L-Threonine Ester, Hydrochloride [S(−) Ketorolac L-Threonine ester]
analgesic activity and side effects (words) [15]: lack of pain, no gastric irritation symptoms, or other side effects
analgesic activity and side effects (words) ([15]; listed as S(−) Ketorolac-L-Threonine ester): lack of any pain
analgesic activity ([15]; only one dose of 13 mg daily, after the 2nd day): complained of the pain resurfacing
